# Results from PubChem BioAssay AID330 (DTP/NCI, 2004).
# “And” between values parts separate entries of the source, which are not always exact repeats. Equal values may be shown once. Toxic doses and inconclusive results are not listed.
# Test system: P388 leukemia ip, CD2F1 mice, survival T/C
# Test: NCI In Vivo Anticancer Drug Screen. Data for tumor model P388 Leukemia (intraperitoneal) in CD2F1 (CDF1) mice
# Details: endpoint: median survival time, higher = longer survival
# In short: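 Mice carrying the transplanted tumor received test compound or vehicle. Survival was recorded in each group, and the value is the treated-group measurement divided by that of the vehicle-treated control group.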
# [1] = dose: 25.0 mg/kg/injection, schedule: Q04DX003 (ip), vehicle: water
# [2] = dose: 50.0 mg/kg/injection, schedule: Q04DX003 (ip), vehicle: water
# [3] = dose: 50.0 mg/kg/injection, schedule: Q01DX005 (ip), vehicle: saline with Tween-80
# [4] = dose: 100.0 mg/kg/injection, schedule: Q01DX005 (ip), vehicle: saline with Tween-80
# [5] = dose: 100.0 mg/kg/injection, schedule: Q01DX001 (ip), vehicle: saline
# [6] = dose: 200.0 mg/kg/injection, schedule: Q01DX001 (ip), vehicle: saline
# [7] = dose: 400.0 mg/kg/injection, schedule: Q01DX001 (ip), vehicle: saline
# [8] = dose: 60.0 mg/kg/injection, schedule: Q01DX005 (ip), vehicle: saline with Tween-80
# [9] = dose: 120.0 mg/kg/injection, schedule: Q01DX005 (ip), vehicle: saline with Tween-80
compound,measurement,setting,value
O=C(O)C1(C(=O)O)CCC1.[NH2-].[NH2-].[Pt+2],T/C,"dose: 6.25 mg/kg/injection, schedule: Q01DX005 (ip), vehicle: water",152 % of control
same,T/C,"dose: 6.25 mg/kg/injection, schedule: Q01DX009 (ip), vehicle: water",167 % of control
same,T/C,"dose: 12.5 mg/kg/injection, schedule: Q01DX001 (im), vehicle: suspension in saline",105 % of control
same,T/C,"dose: 12.5 mg/kg/injection, schedule: Q01DX001 (ip), vehicle: suspension in saline",117 % of control
same,T/C,"dose: 12.5 mg/kg/injection, schedule: Q01DX001 (iv), vehicle: suspension in saline",108 % of control
same,T/C,"dose: 12.5 mg/kg/injection, schedule: Q01DX001 (sc), vehicle: suspension in saline",103 % of control
same,T/C,"dose: 12.5 mg/kg/injection, schedule: Q01DX005 (ip), vehicle: water",166 % of control
same,T/C,"dose: 12.5 mg/kg/injection, schedule: Q01DX009 (ip), vehicle: saline",113 % of control
same,T/C,"dose: 12.5 mg/kg/injection, schedule: Q01DX009 (ip), vehicle: water",189 % of control
same,T/C,"dose: 12.5 mg/kg/injection, schedule: Q04DX003 (iv), vehicle: saline",110 % of control
same,T/C,"dose: 25.0 mg/kg/injection, schedule: Q01DX001 (im), vehicle: suspension in saline",117 % of control
same,T/C,"dose: 25.0 mg/kg/injection, schedule: Q01DX001 (ip), vehicle: saline",107 % of control
same,T/C,"dose: 25.0 mg/kg/injection, schedule: Q01DX001 (ip), vehicle: suspension in saline",121 % of control
same,T/C,"dose: 25.0 mg/kg/injection, schedule: Q01DX001 (iv), vehicle: suspension in saline",106 % of control
same,T/C,"dose: 25.0 mg/kg/injection, schedule: Q01DX001 (oral), vehicle: suspension in saline",100 % of control
same,T/C,"dose: 25.0 mg/kg/injection, schedule: Q01DX001 (sc), vehicle: suspension in saline",107 % of control
same,T/C,"dose: 25.0 mg/kg/injection, schedule: Q01DX005 (ip), vehicle: water",194 % of control
same,T/C,"dose: 25.0 mg/kg/injection, schedule: Q01DX005 (iv), vehicle: water",90 % of control
same,T/C,"dose: 25.0 mg/kg/injection, schedule: Q01DX009 (ip), vehicle: saline",152 % of control
same,T/C,"dose: 25.0 mg/kg/injection, schedule: Q01DX009 (ip), vehicle: water",112 % of control
same,T/C,"dose: 25.0 mg/kg/injection, schedule: Q04DX003 (ip), vehicle: saline",114 % of control
same,T/C,[1],186 % of control
same,T/C,"dose: 25.0 mg/kg/injection, schedule: Q04DX003 (iv), vehicle: saline",113 % of control
same,T/C,"dose: 50.0 mg/kg/injection, schedule: Q01DX001 (im), vehicle: suspension in saline",110 % of control
same,T/C,"dose: 50.0 mg/kg/injection, schedule: Q01DX001 (ip), vehicle: suspension in saline",124 % of control
same,T/C,"dose: 50.0 mg/kg/injection, schedule: Q01DX001 (ip), vehicle: water",161 % of control
same,T/C,"dose: 50.0 mg/kg/injection, schedule: Q01DX001 (iv), vehicle: suspension in saline",110 % of control
same,T/C,"dose: 50.0 mg/kg/injection, schedule: Q01DX001 (oral), vehicle: suspension in saline",103 % of control
same,T/C,"dose: 50.0 mg/kg/injection, schedule: Q01DX001 (sc), vehicle: suspension in saline",110 % of control
same,T/C,"dose: 50.0 mg/kg/injection, schedule: Q01DX009 (ip), vehicle: saline",100 % of control
same,T/C,[2],217 % of control
same,T/C,"dose: 50.0 mg/kg/injection, schedule: Q04DX003 (iv), vehicle: saline",117 % of control
same,T/C,"dose: 50.0 mg/kg/injection, schedule: Q04DX003 (oral), vehicle: saline",116 % of control
same,T/C,"dose: 100.0 mg/kg/injection, schedule: Q01DX001 (im), vehicle: suspension in saline",111 % of control
same,T/C,"dose: 100.0 mg/kg/injection, schedule: Q01DX001 (ip), vehicle: water",164 % of control
same,T/C,"dose: 100.0 mg/kg/injection, schedule: Q01DX001 (iv), vehicle: saline",105 % of control
same,T/C,"dose: 100.0 mg/kg/injection, schedule: Q01DX001 (iv), vehicle: suspension in saline",115 % of control
same,T/C,"dose: 100.0 mg/kg/injection, schedule: Q01DX001 (iv), vehicle: water",93 % of control
same,T/C,"dose: 100.0 mg/kg/injection, schedule: Q01DX001 (sc), vehicle: suspension in saline",120 % of control
same,T/C,"dose: 100.0 mg/kg/injection, schedule: Q04DX003 (ip), vehicle: saline",170 % of control
same,T/C,"dose: 100.0 mg/kg/injection, schedule: Q04DX003 (ip), vehicle: water",96 % of control
same,T/C,"dose: 100.0 mg/kg/injection, schedule: Q04DX003 (iv), vehicle: saline",123 % of control
same,T/C,"dose: 100.0 mg/kg/injection, schedule: Q04DX003 (oral), vehicle: saline",114 % of control
same,T/C,"dose: 200.0 mg/kg/injection, schedule: Q01DX001 (im), vehicle: suspension in saline",105 % of control
same,T/C,"dose: 200.0 mg/kg/injection, schedule: Q01DX001 (iv), vehicle: suspension in saline",100 % of control
same,T/C,"dose: 200.0 mg/kg/injection, schedule: Q01DX001 (oral), vehicle: saline",104 % of control
same,T/C,"dose: 200.0 mg/kg/injection, schedule: Q01DX001 (oral), vehicle: suspension in saline",110 % of control
same,T/C,"dose: 200.0 mg/kg/injection, schedule: Q01DX001 (sc), vehicle: suspension in saline",107 % of control
same,T/C,"dose: 200.0 mg/kg/injection, schedule: Q04DX003 (oral), vehicle: saline",117 % of control
same,T/C,"dose: 400.0 mg/kg/injection, schedule: Q01DX001 (iv), vehicle: saline",91 % of control
same,T/C,"dose: 400.0 mg/kg/injection, schedule: Q01DX001 (oral), vehicle: saline",100 % of control
same,T/C,"dose: 400.0 mg/kg/injection, schedule: Q01DX001 (oral), vehicle: suspension in saline",101 % of control
same,T/C,"dose: 400.0 mg/kg/injection, schedule: Q04DX003 (oral), vehicle: saline",122 % of control
COc1ccc2c(N)c3cccc[n+]3cc2c1OC,T/C,"dose: 6.25 mg/kg/injection, schedule: Q04DX003 (ip), vehicle: water",106 % of control and 108 % of control
same,T/C,"dose: 12.5 mg/kg/injection, schedule: Q04DX003 (ip), vehicle: water",116 % of control and 121 % of control
same,T/C,[1],118 % of control and 122 % of control
same,T/C,[2],103 % of control
COc1cc(OC)c2c(c1)OC(=O)C(C(C)=O)C2 (centres undefined),T/C,[3],96 % of control
same,T/C,[4],112 % of control
CO/C=N/c1cn2c(n1)CN=C2,T/C,[5],102 % of control
same,T/C,[6],95 % of control
same,T/C,[7],96 % of control
COCC1(C)CCCC2(C)C1CCC13CCC(OC(C)=O)CC12O3 (centres undefined),T/C,[5],102 % of control
same,T/C,[6],108 % of control
same,T/C,[7],110 % of control
COC(=O)c1cc(=O)nc(N/N=C/c2cc(OC)ccc2OC)s1,T/C,[3],95 % of control
same,T/C,[4],94 % of control
same,T/C,"dose: 200.0 mg/kg/injection, schedule: Q01DX005 (ip), vehicle: saline with Tween-80",95 % of control
BrCCCOc1ccccc1Br,T/C,"dose: 50.0 mg/kg/injection, schedule: Q01DX005 (ip), vehicle: Klucel (hydroxypropylcellulose) (HPC)",101 % of control
same,T/C,"dose: 100.0 mg/kg/injection, schedule: Q01DX005 (ip), vehicle: Klucel (hydroxypropylcellulose) (HPC)",97 % of control
same,T/C,"dose: 200.0 mg/kg/injection, schedule: Q01DX005 (ip), vehicle: Klucel (hydroxypropylcellulose) (HPC)",105 % of control
CN1CCN(c2c(C(=O)Nc3ccc([N+](=O)[O-])cc3)cc([N+](=O)[O-])cc2[N+](=O)[O-])CC1,T/C,[8],92 % of control
same,T/C,[9],90 % of control
CCOC(=O)CC(C)=Nc1c(SC)sc(C#N)c1N,T/C,"dose: 100.0 mg/kg/injection, schedule: Q04DX002 (ip), vehicle: saline with Tween-80",97 % of control
same,T/C,"dose: 200.0 mg/kg/injection, schedule: Q04DX002 (ip), vehicle: saline with Tween-80",95 % of control
same,T/C,"dose: 400.0 mg/kg/injection, schedule: Q04DX002 (ip), vehicle: saline with Tween-80",91 % of control
CCN(CC)c1ccc2c(cc1=O)[C@@H](NC(C)=O)CCc1cc(OC)c(OC)c(OC)c1-2,T/C,"dose: 0.39 mg/kg/injection, schedule: Q01DX009 (ip), vehicle: Klucel (hydroxypropylcellulose) (HPC)",103 % of control and 107 % of control and 120 % of control
same,T/C,"dose: 3.13 mg/kg/injection, schedule: Q01DX009 (ip), vehicle: Klucel (hydroxypropylcellulose) (HPC)",181 % of control
Cc1ccc(C(=O)CC2(O)C(=O)Nc3ccccc32)cc1 (centres undefined),T/C,"dose: 50.0 mg/kg/injection, schedule: Q01DX009 (ip), vehicle: Klucel (hydroxypropylcellulose) (HPC)",96 % of control
same,T/C,"dose: 100.0 mg/kg/injection, schedule: Q01DX009 (ip), vehicle: Klucel (hydroxypropylcellulose) (HPC)",92 % of control
same,T/C,"dose: 200.0 mg/kg/injection, schedule: Q01DX009 (ip), vehicle: Klucel (hydroxypropylcellulose) (HPC)",87 % of control
O=C(O)C(Cc1ccccc1)NC(c1ccccc1)P(=O)(O)O (centres undefined),T/C,[8],101 % of control
same,T/C,[9],99 % of control
same,T/C,"dose: 240.0 mg/kg/injection, schedule: Q01DX005 (ip), vehicle: saline with Tween-80",105 % of control
